{
  "source": "patent US20090062244A1",
  "about": "“PHARMACEUTICAL COMPOSITION” (priority 2007, published 2009)",
  "origin": "cited, not measured here",
  "details": "room temperature",
  "data": [
    {"smiles": "O=C(OOC(=O)c1ccccc1)c1ccccc1", "note": "[benzoyl peroxide]", "values": [
      {"measurement": "Solubility in 95% alcohol compared with absolute alcohol", "result": "several times lower"}
    ]}
  ]
}
